Experiments:
HRoV = HRoV inhibition assay on MA104 cells; assay type: cell-based, Human rotavirus strain Wa
Description: MA104 cell were plated in 96-well trays. The following day virus infectivity was activated by adding 5 μg porcine trypsin (Sigma)/mL for 30 min at 37°C. […] After 16 h, cells were fixed with cold acetone–methanol and viral titers were determined by indirect immunostaining using the monoclonal antibody mab-0036 (specific for human 41 kDa inner capsid protein–VP6 –of rotavirus) purchased from Covalab (Villeurbanne, France) and the UltraTech HRP Streptavidin-Biotin Detection System (Beckman Colter).

HCMV = HCMV inhibition assay on HELF cells; assay type: cell-based, HCMV strain Towne; conditions: Human betaherpesvirus 5, HELF
Description: HELF cells were pre-plated in a 96-well plate. […] After five days incubation, cells were observed under an inverted Zeiss LSM510 fluorescence microscope (Zeiss, Oberkochen, Germany) and the percentages of infection were calculated by comparing GFP positive cells in treated and untreated wells.

HSV-2 [1] = test: Time of addition: during infection, no preincubation; assay type: cell-based; conditions: Human alphaherpesvirus 2; during-infection assay, virus and compound added simultaneously
VSV = test: microbe, parasite or virus in culture; assay type: cell-based; conditions: Vesicular stomatitis virus
Ad5 = Ad5 inhibition assay on HeLa cells; assay type: cell-based, Adenovirus 5
Description: HeLa cells were plated in 96-well plates. […] The GFP-expressing infected cells were observed under an inverted Zeiss LSM510 fluorescence microscope (Zeiss, Oberkochen, Germany) and the percentages of infection were calculated by comparing GFP positive cells in treated and untreated wells.

HSV-2 [2] = test: Time of addition: pretreatment of cells before HSV-2 infection; assay type: cell-based; conditions: compound on cells 2 h before infection, then removed
Description: We performed assays aimed at better understanding the mechanism of action. In the pretreatment assay compound 9d was added on cells before the virus in order to determine if the antiviral activity was due to an interaction with the cells. Moreover, an assay was conducted adding virus and compound on cells without the preincubation performed in previous assays.
Fig 4 Time of addition assays. Compound 9d was added on cells 2 h before infection (PRE-TREATMENT CELLS) and subsequently the inocula were removed and cells were infected or compound and virus were added simultaneously on cells (DURING INFECTION) or after 1 h pre-incubation between the virus and the compound (PRE-TREATMENT VIRUS). Cells were fixed and stained 24 h later and plaques were counted.
Pretreatment: cells were pretreated for 2 h at 37°C with increasing concentrations of compounds, the inocula were then removed, cells washed and HSV-2 was added on cells for 2 h at 37°C. Subsequently the same protocol described above was followed.

HSV-2 [3] = test: Virucidal assay; assay type: cell-based; conditions: for viral infectivity: 10 μM of compound
HSV-1 = HSV-1 plaquing efficiency assay; assay type: cell-based
HSV-2 [4] = test: Binding assay (qPCR, immunostaining, IF); assay type: cell-based; conditions: 10 μM, HSV-2 MOI 10, 2 h on Vero cells at 4°C
Description: Since the observed irreversible effect can be exerted at different stages of viral infection, we investigated more in detail if compound 9d produced a physical disruption of the virus, thus preventing its attachment to the cells or a successive irreversible modification. We performed entry and binding assays, evaluating the amount of bound virus through immunostaining or qPCR. […] On the contrary, when entry assays were performed, it was possible to observe a reduction in the amount of virus associated to the cells (Fig 7D). […]
Cells were plated on coverslips and the following day the binding or entry protocol described above was applied. […] Rhodamine conjugated anti-rabbit (Santa Cruz) was then added on cells for 1 h at 37°C following 3 washes coverslips were mounted on microscope glasses and observed with Zeiss LSM510 fluorescence microscope (Zeiss, Oberkochen, Germany) and images were acquired.
Cells subjected to binding assays were then lysed and subjected to total DNA/RNA extraction and subsequently subjected to qPCR using as primers 5’- […] -3’ and 5’-[…] -3’ and as probe 5’-FAM […] -TAMRA for 40 cycles at 94°C for 15” followed by 60°C for 60”. The results were normalized according to values of rnasep and the % of bound virus were measured comparing the Δct of treated wells to wells treated with equal volume of solvent.

[5] = Cell viability MTS assay on Vero cells; conditions: African green monkey
HSV-2 [6] = test: Viral yield reduction, post treatment; conditions: Human alphaherpesvirus 2
[7] = In vitro lipoperoxidation test (TBA assay, MDA); conditions: DPPC liposomes, 37°C, 30 minutes
HSV-2 [8] = test: HSV-2 plaquing efficiency assay, compound preincubated with virus 1 h at 37°C; assay type: cell-based; conditions: Human alphaherpesvirus 2, HSV-2, Vero cells, 1 h pre-incubation virus/compound

For `CC(C)c1ccc(CCN2C(=O)/C(=C/c3ccc(-c4ccc(C(=O)O)c(O)c4)o3)SC2=S)cc1` [Compound 9d, (Z)-2-hydroxy-4-(5-((3-(4-isopropylphenethyl)-4-oxo-2-thioxothiazolidin-5-ylidene)methyl)furan-2-yl)benzoic acid], the “antiviral activity against non-enveloped virus” value (HRoV) was “inactive”, the EC50 (HCMV; read-out: EC50 (95% C.I.)) was 4.22 nM and the EC90 (HCMV; read-out: EC90 (95% C.I.)) was 31.3 nM. For the same molecule, the EC50 (HSV-2 [1]) was 147 nM, the EC50 (VSV; read-out: EC50 (95% C.I.)) was 13.2 nM and the EC90 (VSV; read-out: EC90 (95% C.I.)) was 117 nM. For the same molecule, the “antiviral activity against non-enveloped virus” value (Ad5) was “inactive”, the “antiviral activity in pre-treatment assay” value (HSV-2 [2]) was “not active” and the viral infectivity (HSV-2 [3]; 15' post treatment) was “decreased”. For the same molecule, the viral infectivity (HSV-2 [3]; from 30' on) was “completely abrogated”, the “infectivity after dilution in drug free medium” value (HSV-2 [3]; 1h incubation, then diluted for additional 1, 2, 3 or 4 hours) was “not regained” and the EC50 (HSV-2 [3]; Human alphaherpesvirus 2, virucidal assay, 1h of exposure, 10^5 pfu HSV-2) was 37.3 nM. The EC50 (HSV-1; Human alphaherpesvirus 1, read-out: EC50 (95% C.I.)) was 2.18 nM, the EC90 (HSV-1; Human alphaherpesvirus 1, read-out: EC90 (95% C.I.)) was 35.1 nM and the viral binding capability (HSV-2 [4]) was “not altering viral binding capability”. The CC50 ([5]; CC50, Vero cells, MTS) was 2090 nM, the CC50 at 96 h ([5]; CC50, Vero cells, after 96h exposure) was 2090 nM and the CC50 ([5]; CC50, conditions of HSV-1 assay) was 2090 nM. It also gave a CC50 ([5]; CC50, conditions of HSV-2 acyclovir resistant assay) of 2090 nM, a CC50 ([5]; CC50, conditions of ZIKAV assay) of 8850 nM and an EC50 (HSV-2 [6]) of 33.9 nM. For the same molecule, the “lipid peroxidation of linoleic acid (MDA)” value [7] was “remarkable lipid peroxidation”, the EC50 (HSV-2 [8]; plaques at 24 h, read-out: EC50 (95% C.I.)) was 6.55 nM and the EC90 (HSV-2 [8]; read-out: EC90 (95% C.I.)) was 40 nM.
